6 compounds from patent US20110124006A1, “METHOD FOR SCREENING OF THERAPEUTIC AGENT FOR CANCER” (Hismitsu Pharmaceutical Co., Inc., priority 2008, published 2011) can be followed below.

One data set has as its system MYCN protein expression. The data set can be described thus: Immunoblot of MYCN protein induced by NLRR1 expression in SK-N-BE cells. It counts as cell-based. Conditions: NLRR1 plasmid 1000 ng/ml, 12 hours, 1 μM AG1478 or 2 μM U0126. The protocol: An expression plasmid of NLRR1 tagged with a myc tag was introduced into SK-N-BE cells at the concentration of 1000 ng/ml. The cells were cultured for 12 hours in the presence of 1 μM of EGFR inhibitor AG1478 or 2 μM of ERK1/2 inhibitor U0126, and then the cells were collected and subjected to an immunoblot method using an anti-myc antibody, an anti-MYCN antibody and an anti-actin antibody. FIG. 34 is a photograph showing a result of an immunoblot.
On the technique in general: A western blot detects proteins with antibodies after separation by electrophoresis.

Data set [1] relates to SK-N-BE cells. The data set can be described thus: MTT assay, proliferation of SK-N-BE cells in the presence of EGF. It counts as cell-based. Conditions: 10 ng/ml EGF plus 5 μM inhibitor, vs EGF-only control, T-test p<0.01. The protocol: SK-N-BE cells were cultured in the presence of 10 ng/ml EGF (control, which corresponds to “mock” in FIG. 26), in the presence of 10 ng/ml EGF and 5 μM of EGFR inhibitor AG1478, as well as in the presence of 10 ng/ml EGF and 5 μM of Ras inhibitor FTI277, and the cell proliferation was quantified by the MTT assay over time. FIG. 26 is a graph showing the proliferation of cells.

The subject of data set [2] is MYCN expression. Put plainly: Immunoblot of EGF-induced MYCN expression in SK-N-BE cells with pathway inhibitors. Conditions: six hours, 10 ng/ml EGF, inhibitor concentrations shown in FIG. 27. It counts as cell-based. The protocol: SK-N-BE cells were cultured for six hours in the presence of 10 ng/ml EGF and in the presence of an EGFR inhibitor AG1478, a Ras inhibitor FTI277, an ERK1/2 inhibitor U0126, a PI3Kinase inhibitor LY294002, a INK inhibitor SP600125 or a p38MAPK inhibitor SB203580 in each concentration shown in FIG. 27. Next, respective cells were collected, and the expression of MYCN was analyzed by an immunoblot method using an anti-MYCN antibody and an anti-actin antibody. FIG. 27 is a photograph showing a result of an immunoblot.

The subject of data set [3] is SK-N-BE cells forced to express NLRR1. Conditions: SK-N-BE cells forced to express NLRR1, presence vs absence of U0126, over time. The protocol: SK-N-BE cells that were forced to express NLRR1 were cultured in the presence and absence of ERK1/2 (ERK1 and ERK2) inhibitor, U0126. Furthermore, as a control, SK-N-BE cells into which a plasmid encoding NLRR1 was not introduced were cultured in the absence of U0126. The proliferation of these cells was quantified by an MTT assay over time. FIG. 23 is a graph showing a proliferation of cells. In the drawing, A denotes the proliferation of SK-N-BE cells forced to express NLRR1; B denotes the proliferation of SK-N-BE cells forced to express NLRR1 in the presence of U0126; and C denotes the proliferation of control cells.

Data set [4] deals with phosphorylation of EGFR and ERK. Put plainly: Western blotting of EGFR and ERK phosphorylation in MCF-7 cells forced to express NLRR1. It counts as cell-based. Conditions: MCF-7 cells forced to express NLRR1, 10 mM cyclodextrin 30 minutes 37° C., then EGF three minutes. Here is the method:
The effect of NLRR1 on EGF signal transduction in cells treated with cyclodextrin (methyl-β-cyclodextrin, mβCD) that inhibits lipid raft was examined. FIG. 39 is a photograph showing a result of an immunoblot. […] The cells were washed with the medium, and cultured for three minutes in a medium containing EGF with different concentrations. Then, the phosphorylation of EGFR and ERK was analyzed by Western blotting. With the expression of NLRR1, the enhancement of phosphorylation of EGFR and ERK by EGF was detected. […] From the result, it has been clarified that the enhancement of an EGF signal by NLRR1 needs the structure of lipid raft. Thus, it is thought that treatment of cancer using the combination of an antibody inhibiting NLRR1 and an inhibitor of lipid raft is effective.

The next data set has as its system NLRR1. Put plainly: Immunoblot of NLRR1 expression after siRNA introduction. It counts as cell-based. Conditions: SK-N-BE cells, anti-NLRR1 rabbit polyclonal antibody. Here is the method: (§1) To SK-N-BE cells derived from neuroblastoma, siRNA against NLRR1 was introduced so as to suppress the expression of NLRR1. As the siRNA, RNA fragment of the base sequences shown SEQ ID NOs: 3 and 4 were annealed and used.
(§2) After siRNA was introduced, the cells were cultured, and the cell proliferation was quantified by the MTT assay over time. As a control, cells into which Silencer (registered trademark) Negative Control #1 siRNA (Ambion) was introduced were used. FIG. 11 is a graph showing the proliferation of cells. […] FIG. 12 is a photograph of an immunoblot in which the expression of NLRR1 in the cells into which siRNA against NLRR1 was introduced and the control cells were detected by using an anti-NLRR1 rabbit polyclonal antibody. The anti-NLRR1 rabbit polyclonal antibody was prepared by immunizing a rabbit with a synthetic peptide corresponding to 693-712 residues of an amino acid sequence of NLRR1 (SEQ ID NO: 2) as an antigen. The result when an anti-actin antibody was used as the loading control is also shown.

For the next data set, the system named is SHEP21N cells. Put plainly: MTT assay, proliferation of SHEP21N cells forced to express MYCN. It counts as cell-based. Conditions: absence of tetracycline (expression of MYCN increased). An excerpt: To SHEP21N cells that were forced to express MYCN in the absence of tetracycline, siRNA against NLRR1 was introduced, and the cell proliferation was quantified by the MTT assay over time. FIG. 15 is a graph showing the proliferation of cells. In the absence of tetracycline (expression of MYCN was increased), the proliferation of cells was promoted as compared with the case in the presence of tetracycline (expression of MYCN was suppressed). When Silencer (registered trademark) Negative Control #1 siRNA was introduced in the absence of tetracycline (expression of MYCN was increased) as a control, the proliferation rate of cells was not changed.
On the technique in general: Tetrazolium dyes change colour on reduction, which living cells bring about.

For data set [5], the system named is SK-N-BE cells, NLF cells, SH-SY5Y cells, SMS-SAN cells. Put plainly: MTT assay, EGF-induced proliferation of neuroblastoma-derived cells. It counts as cell-based. Conditions: SK-N-BE cells with siRNA, 10 ng/ml EGF. The protocol: SK-N-BE cells, NLF cells, SH-SY5Y cells, SMS-SAN cells, which are cell lines derived from neuroblastoma, and SK-N-BE cells into which siRNA against NLRR1 was introduced were cultured in the presence and absence of 10 ng/ml EGF, and the cell proliferation was quantified by the MTT assay over time. FIG. 28 is a graph showing the cell proliferation, showing the change fold ratio of the proliferation of cells in the presence of EGF to the proliferation of cells in the absence of EGF.

In data set [6] the test system is SK-N-AS cell line continuously expressing NLRR1. Put plainly: Flow cytometry of sub-G1 cells (apoptosis) under serum-free conditions. It counts as cell-based. Conditions: SK-N-AS line continuously expressing NLRR1, serum-free 36 hours, PI staining. An excerpt: It is known that in the SK-N-AS neuroblastoma cell line, cell death is induced when serum is removed, and that the number of sub-G1 cells is increased from the flow cytometry analysis. SK-N-AS cells into which an empty vector plasmid was introduced (corresponding to “mock” on the left in FIG. 17), a cell line continuously expressing NLRR1 obtained by introducing a plasmid encoding NLRR1 into SK-N-AS cells (corresponding to “+NLRR1” in the middle of FIG. 17), and cells obtained by introducing siRNA against NLRR1 into this cell line continuously expressing NLRR1 (corresponding to “+siRNA+NLRR1” on the right of FIG. 17) were PI stained before and after the cells were cultured under the serum-free conditions for 36 hours, and analyzed by flow cytometry. The rate of the sub-G1 cells was evaluated as a rate of apoptosis. […] FIG. 18 is a graph showing the proportion of the number of sub-G1 cells to the total number of cells before and after culturing under the serum free conditions of respective cells based on the results of FIG. 17, in which the unit of the ordinate axis is %.
A general note: Flow cytometry measures light scatter and fluorescence of single cells or particles in a stream.

In data set [7] the test system is SK-N-BE cells. Put plainly: MTT assay, proliferation of SK-N-BE cells after siRNA introduction. To be noted: vs negative control siRNA, day 4 and day 5 p<0.01. It counts as cell-based. Here is the method:
as §1, §2

Data set [8] relates to MYCN expression. Put plainly: Immunoblot of EGF-induced MYCN expression in SK-N-BE cells after siRNA introduction. It counts as cell-based. To be noted: 10 hours, 10 ng/ml EGF. The protocol:
SK-N-BE cells, SK-N-BE cells into which siRNA against NLRR1 was introduced, and SK-N-BE cells into which Silencer (registered trademark) Negative Control #1 siRNA was introduced were cultured for 10 hours in the presence of 10 ng/ml EGF, and the cells were collected. Next, these cells were subjected to an immunoblot method using an anti-MYCN antibody, an anti-NLRR1 rabbit polyclonal antibody and an anti-actin antibody, and expression of MYCN and NLRR1 in the protein level was detected. FIG. 16 is a photograph showing a result of immunoblot. The result of the cells into which control siRNA was introduced corresponds to “mock” in FIG. 16.

With `COc1cc2ncnc(Nc3cccc(Cl)c3)c2cc1OC` [AG1478], the “expression induction of MYCN protein by the expression of NLRR1 (immunoblot)” value with MYCN protein expression was “expression induction of MYCN protein by the expression of NLRR1 is suppressed”. Moreover, the “proliferation of cells (MTT assay)” value with SK-N-BE cells [1] is given as “the proliferation of cells is suppressed”. Moreover, in the data set on MYCN expression [2], the “expression increase of MYCN by the induction of EGF (immunoblot)” value (from here on “expression increase of MYCN”) is listed as “expression increase of MYCN by the induction of EGF was inhibited”.

With `COC(=O)[C@H](CCSC)NC(=O)c1ccc(NC[C@@H](N)CS)cc1-c1ccccc1` [FTI277], in the data set with SK-N-BE cells [1], the “proliferation of cells (MTT assay)” value was “the proliferation of cells is suppressed”. For the same compound, the “expression increase of MYCN” value in the data set with MYCN expression [2] was “expression increase of MYCN by the induction of EGF was inhibited”.

Consider `C[S+]([O-])c1ccc(-c2nc(-c3ccncc3)c(-c3ccc(F)cc3)[nH]2)cc1` (stereo not shown) [SB203580], for which, in the data set with MYCN expression [2], the “expression increase of MYCN” value is recorded as “expression increase of MYCN by the induction of EGF was not inhibited”.

Regarding `N#CC(=C(/N)Sc1ccccc1N)/C(C#N)=C(\N)Sc1ccccc1N` [U0126], the “proliferation of cells (MTT assay)” value in data set [3] is on record as “the cell proliferation was suppressed”. Moreover, the “expression induction of MYCN protein by the expression of NLRR1 (immunoblot)” value in the data set with MYCN protein expression was “expression induction of MYCN protein by the expression of NLRR1 is suppressed”. Moreover, the “expression increase of MYCN” value in the data set with MYCN expression [2] was “expression increase of MYCN by the induction of EGF was inhibited”.

Turning to methyl-β-cyclodextrin [mβCD], in data set [4], the “enhancement of phosphorylation of EGFR and ERK by NLRR1” value was “the enhancement of phosphorylation of EGFR and ERK by NLRR1 was not observed”.

For “siRNA against NLRR1: annealed RNA fragments of SEQ ID NOs: 3 and 4, suppresses the expression of NLRR1 (chain 1 UCUUGGUUGAGCUGUGUAGUU; chain 2 AACUACACAGCUCAACCAAGA; RNA, backbone not given here; listed as Homo sapiens)”, the “expression of NLRR1 (immunoblot)” value with NLRR1 is reported as “the expression of NLRR1 was suppressed”. The “proliferation of cells due to increased MYCN expression (MTT assay)” value in the data set on SHEP21N cells is reported as “the proliferation of cells due to the increase in the MYCN expression did not occur”. For the same compound, the “EGF-induced cell proliferation (MTT assay, fold ratio with vs without EGF)” value in data set [5] is given as “EGF-induced cell proliferation was remarkably suppressed”. Besides, the “apoptosis (proportion of sub-G1 cells)” value in [6] is recorded as “the increase in the apoptosis was observed”. Also, the “proliferation of cells (MTT assay)” value with SK-N-BE cells [7] is on record as “the proliferation of cells is suppressed”. In the data set with MYCN expression [8], the “induction of the expression of MYCN by EGF treatment (immunoblot)” value is recorded as “the induction of the expression of MYCN by EGF treatment was suppressed”.
